The source of these data is the supplement of paper PMC10307832.

Holding throughout (assay): relative viability (nuclei count vs DMSO), 5 days (fraction); higher = more cells survive
Compound in experiment [1]: C1COCCN1C2=NC(=NC3=C2OC4=C3C=CC=N4)C5=CC(=CC=C5)NC(=O)C6=CN=C(C=C6)N + O=C(c1cc(Cc2n[nH]c(=O)c3ccccc23)ccc1F)N1CCN(C(=O)C2CC2)CC1 [Olaparib] (partner 8 µM)
An outline of the steps:
(§1)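 Nuclei were stained with Hoechst during a one-step fixation (final 0.05% Triton X-100, 1% formaldehyde, 1 ug/ml Hoechst) carried out 5 days after dosing, then counted on 4× images. The cells, lung cancer lines in 1536-well plates, had been dosed by pin tool the day after seeding with one drug alone or a fixed anchor-drug dose plus five library-drug doses (not always all listed) in √10 steps. Relative viability is the nuclei count in treated wells divided by that in vehicle wells, and each value is the median of duplicate plates.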

Compound in the experiment “SGI-1776 + OSI-027”: CN1CCC(CNc2ccc3ncc(-c4cccc(OC(F)(F)F)c4)n3n2)CC1 [SGI-1776] + COc1cccc2cc(-c3nc([C@H]4CC[C@H](C(=O)O)CC4)n4ncnc(N)c34)[nH]c12 [OSI-027] (partner 0.5 µM)
In outline:
as §1

Compound in experiment [2]: C1COCCN1C2=NC(=NC3=C2OC4=C3C=CC=N4)C5=CC(=CC=C5)NC(=O)C6=CN=C(C=C6)N + CC(=O)c1c(C)c2cnc(Nc3ccc(N4CCNCC4)cn3)nc2n(C2CCCC2)c1=O [Palbociclib] (partner 0.5 µM)
An outline of the steps:
as §1

Compound in experiment [3]: C1COCCN1C2=NC(=NC3=C2OC4=C3C=CC=N4)C5=CC(=CC=C5)NC(=O)C6=CN=C(C=C6)N + C[C@@H](Oc1cc(-c2cnn(C3CCNCC3)c2)cnc1N)c1c(Cl)ccc(F)c1Cl [Crizotinib] (partner 1 µM)
An outline of the steps: as §1

Turning to UMC-11, the relative viability is 0.374 in experiment [1] (first compound 0.02 µM); 0.37 in experiment [1] (first compound 0.06325 µM); 0.354 in experiment [1] (first compound 0.2 µM); 0.359 in experiment [1] (first compound 0.6325 µM); 0.246 in experiment [1] (first compound 2 µM); 0.493 in the experiment with SGI-1776 + OSI-027 (first compound 0.08 µM). Besides, the relative viability in the experiment with SGI-1776 + OSI-027 (first compound 0.8 µM) was 0.466; with SGI-1776 + OSI-027 (first compound 2.53 µM), 0.396; with SGI-1776 + OSI-027 (first compound 8 µM), 0.278; in experiment [2] (first compound 0.02 µM), 0.347; in experiment [2] (first compound 0.06325 µM), 0.327; in experiment [2] (first compound 0.2 µM), 0.344. Also, the relative viability in experiment [2] (first compound 0.6325 µM) was found to be 0.324; in experiment [2] (first compound 2 µM), 0.265; in experiment [3] (first compound 0.02 µM), 0.564; in experiment [3] (first compound 0.06325 µM) it was 0.59; in experiment [3] (first compound 0.2 µM), 0.677; in experiment [3] (first compound 0.6325 µM), 0.672. For the same cell line, in experiment [3] (first compound 2 µM), the relative viability stood at 0.498.
